Values of other authors as cited in publication PMC5527824 (Frontiers in bioscience (Scholar edition), 2015).

Assays:
PC12 cells = details: of ~30 flavonoids tested; cited from earlier work
nerve cell = details: of ~30 flavonoids tested; cited from earlier work
[1] = cited from earlier work
[2] = rat, in vivo, po; cited from earlier work

Row | SMILES | differentiation of PC12 cells (neurotrophic activity) (PC12 cells) | other results
1 | O=c1cc(-c2ccc(O)c(O)c2)oc2cc(O)cc(O)c12 [luteolin] | some differentiation-inducing activity | –
2 | O=c1c(O)c(-c2ccc(O)c(O)c2)oc2cc(O)cc(O)c12 [quercetin, reference compound] | some differentiation-inducing activity | maintenance of GSH levels in the presence of oxidative stress (nerve cell): able to maintain GSH levels
3 | COc1cc(-c2oc3cc(O)ccc3c(=O)c2O)ccc1O [geraldol, 3,4′,7-trihydroxy-3′-methoxyflavone] | – | activity in several biological assays [1]: as active as fisetin
4 | O=c1cc(-c2ccccc2)oc2cc(O)c(O)c(O)c12 [baicalein] | – | levels of free and conjugated flavonoid [2]: ≤ 1000 nM
5 | COc1cc(-c2oc3cc(O)cc(O)c3c(=O)c2O)ccc1O [isorhamnetin] | some differentiation-inducing activity | –
